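Exposure lasted 48 hours, with cells grown in 96-well plates and compounds tested at five concentrations. GI50 = concentration required for 50% inhibition of growth.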 Active and inactive are the calls of the source. Cut-off read from the data, not from the text of the source: active = GI50 up to about 1.1 µM and inactive = higher.
How the values were obtained:
Assay in all cases: inhibition of tumour cell growth, NCI panel, 48 h
[1] = tested on: UACC-257
[2] = tested on: U-251
[3] = tested on: Malme-3M
[4] = tested on: SF-539
[5] = tested on: SF-268
[6] = tested on: A498
[7] = tested on: HCT-15
[8] = tested on: SNB-19
[9] = tested on: A549
[10] = tested on: EKVX
[11] = tested on: SK-MEL-28
[12] = tested on: NCI/ADR-RES
[13] = tested on: MOLT-4
[14] = tested on: CCRF-CEM
[15] = tested on: TK-10
[16] = tested on: NCI-H460
[17] = tested on: NCI-H226
[18] = tested on: HCC 2998
[19] = tested on: KM12
[20] = tested on: SR

Compound | GI50 [1] | GI50 [2] | GI50 [3] | GI50 [4] | GI50 [5] | GI50 [6] | GI50 [7] [µM] | GI50 [8] | GI50 [9] | GI50 [10] | GI50 [11] | GI50 [12] | GI50 [13] | GI50 [14] | GI50 [15] | GI50 [16] | GI50 [17] | GI50 [18] | GI50 [19] | GI50 [20]
CCOP(=O)(OCC)C(C)(CC)N/C(=N\C1=NC(C(F)(F)F)(C(F)(F)F)N=C(C(F)(F)F)O1)NC(NC(C)=O)(C(F)(F)F)C(F)(F)F (stereo unspecified) | 31.8 µM (inactive) | 31 µM (inactive) | 22.1 µM (inactive) | 40.2 µM (inactive) | 52.2 µM (inactive) | 38.9 µM (inactive) | 58.5 | 60.4 µM (inactive) | 53.5 µM (inactive) | 30.8 µM (inactive) | > 100 µM (inactive) | 17.9 µM (inactive) | 13.2 µM (inactive) | 15.8 µM (inactive) | 46.9 µM (inactive) | 35.3 µM (inactive) | 22 µM (inactive) | 34 µM (inactive) | 35 µM (inactive) | –
O=C(NCCN(CCNC(=O)c1cccc(O)c1O)CCNC(=O)c1cccc(O)c1O)c1cccc(O)c1O [TRENCAM] | 19.5 µM (inactive) | 6.49 µM (inactive) | 2.51 µM (inactive) | 3.85 µM (inactive) | 2.06 µM (inactive) | 51.9 µM (inactive) | 10.4 | 5.22 µM (inactive) | 15 µM (inactive) | 41.4 µM (inactive) | 3.82 µM (inactive) | 49.4 µM (inactive) | – | – | > 56.1 µM (inactive) | 4.38 µM (inactive) | 14.8 µM (inactive) | 3.4 µM (inactive) | 4.4 µM (inactive) | –
COC(=O)C(=O)C(C(=O)C(=O)Nc1ccc(C)cc1)c1nc2ccc(C(=O)c3ccccc3)cc2nc1O (stereo unspecified) | > 100 µM (inactive) | > 100 µM (inactive) | > 100 µM (inactive) | > 100 µM (inactive) | 73.6 µM (inactive) | > 100 µM (inactive) | 52.2 | > 100 µM (inactive) | > 100 µM (inactive) | > 100 µM (inactive) | > 100 µM (inactive) | 22.5 µM (inactive) | – | 76.4 µM (inactive) | > 100 µM (inactive) | 70.8 µM (inactive) | 95.5 µM (inactive) | 92.3 µM (inactive) | 30.4 µM (inactive) | –
COc1ccc2ccccc2c1C1NC(=O)c2ccccc2N1 (stereo unspecified) | 20.8 µM (inactive) | 2.28 µM (inactive) | 0.634 µM (active) | 1.55 µM (inactive) | 3.08 µM (inactive) | 1.3 µM (inactive) | 0.436 | 2.84 µM (inactive) | 1.51 µM (inactive) | 2.51 µM (inactive) | 0.802 µM (active) | 0.507 µM (active) | 0.826 µM (active) | 0.711 µM (active) | 5.15 µM (inactive) | 1.26 µM (inactive) | 1.57 µM (inactive) | 1.95 µM (inactive) | 0.733 µM (active) | –
NC(=O)C(c1ccccc1)N1OC2C(=O)N(c3cccc4ccccc34)C(=O)C2C1c1c2ccccc2c(Cl)c2ccccc12 (stereo unspecified) | 5.18 µM (inactive) | 7.57 µM (inactive) | 11.6 µM (inactive) | 5.24 µM (inactive) | 9.1 µM (inactive) | 14.6 µM (inactive) | 4.21 | 8.22 µM (inactive) | 13.9 µM (inactive) | 11.6 µM (inactive) | 12.8 µM (inactive) | 5.15 µM (inactive) | 1.44 µM (inactive) | – | 10.4 µM (inactive) | 9.31 µM (inactive) | 6.25 µM (inactive) | – | 1.59 µM (inactive) | 1.21 µM (inactive)
O=C1Oc2cc(O)cc(/C=C/c3ccc(O)cc3)c2[C@@]12c1c(O)cc(O)cc1OC2c1cccc(O)c1 (stereo partly specified) | 15.2 µM (inactive) | 32.9 µM (inactive) | 33.4 µM (inactive) | 31.8 µM (inactive) | 36.6 µM (inactive) | – | 83.4 | 30.7 µM (inactive) | 54 µM (inactive) | 49.3 µM (inactive) | 37.3 µM (inactive) | 67.1 µM (inactive) | 42.8 µM (inactive) | 22 µM (inactive) | 39.1 µM (inactive) | 20.9 µM (inactive) | 11.1 µM (inactive) | 19.5 µM (inactive) | 25.6 µM (inactive) | 42.4 µM (inactive)
CC(C)=CCc1cc2c(cc1O)OC[C@H]1c3cc4c(cc3O[C@@H]21)OCO4 | 45.3 µM (inactive) | 37.5 µM (inactive) | – | 36.7 µM (inactive) | 56.6 µM (inactive) | – | 35.8 | 66.1 µM (inactive) | 80.4 µM (inactive) | 22.2 µM (inactive) | 83.4 µM (inactive) | 29.8 µM (inactive) | 22.1 µM (inactive) | 26.4 µM (inactive) | 39.8 µM (inactive) | 21.2 µM (inactive) | 23.8 µM (inactive) | > 10 µM (inactive) | 39.6 µM (inactive) | 33.6 µM (inactive)
CC1CCC2C(C)C(=O)OC2C2(C)C(=O)C=CC12 (stereo unspecified) | > 10 µM (inactive) | > 10 µM (inactive) | – | > 10 µM (inactive) | > 10 µM (inactive) | – | > 10 | > 10 µM (inactive) | > 10 µM (inactive) | > 10 µM (inactive) | > 10 µM (inactive) | > 10 µM (inactive) | 6.59 µM (inactive) | 3.92 µM (inactive) | > 10 µM (inactive) | > 10 µM (inactive) | > 10 µM (inactive) | > 10 µM (inactive) | > 10 µM (inactive) | 3.61 µM (inactive)
